# Legend:
# [1] = tested on: JIMT-1 breast cancer cells; assay: RNA-Seq whole transcriptome analysis, JIMT-1; type: cell-based, human; conditions: 10 nM Afatinib
# [2] = tested on: endometrial (ECC-1 and KLE) and ovarian (HCH-1, OVCAR-3, and SKOV-3) cancer cell lines; assay: MTS cell viability, gynecologic cancer cell line panel; type: cell-based; conditions: for proliferation in multiple endometrial and ovarian cancer cells: at considerably lower doses than FCF; for cytotoxic / anti-proliferative activity (FIG. 2A): fixed concentration 100 μM, 24 hours
# Method: Cell lines, Culture, and Reagents. Cells were maintained in either DMEM (SKOV-3, KLE, OVCAR-3, OVCAR8-C5 and IGROV-1) or RPMI-1640 (ECC-1 and HCH-1), supplemented with 10% fetal calf serum (or 20% for OVCAR-3), penicillin (100 units/mL), and streptomycin (100 μg/mL) at 37° C. with 5% CO2 in a humidified incubator. Antibodies were purchased from Abcam (septin-2; ab179436) and Cell Signaling Technology; ERK (9102), p-ERK (4370), -actin (3700), u-Tubulin (2144), EGFR (4267) and HER2 (4290). FCF was purchased from Abcam. All other chemicals were from Sigma Aldrich. Synthesis of Derivaties. […] The reaction was monitored using thin-layer chromatography plates with DCM-MeOH or pure ethyl acetate as eluent. Spots were monitored in a UV chamber. The reaction mixture, upon completion of the reaction, was poured into wet ice mixture and triturated, then the separated solid was filtered by vacuum. The product was washed with hexane, followed by diethyl ether, and was dried under vacuum. The compounds were characterized by spectrophotometric techniques. Quantitative Real-Time PCR. The indicated cell lines were transfected with siRNA targeting septin-2 or non-targeting control siRNA (Santa Cruz Biotechnology: sc-37007 or sc-40936) using Lipofectamine 3000 (Invitrogen). Tri reagent and Direct-zol kit (Zymo Research) were used to lyse and isolate total RNA. Reverse transcription was performed using iScript cDNA synthesis kit (BioRad), both following the manufacturer's recommendations. Quantitative real-time PCR was conducted using QuantStudio 12 K Flex Real-Time PCR System (ABI) and the Taqman Gene Expression Assay (ABI) consisting of the FAM-labeled probes as follows: SEPT2 (Hs01565417_ml); WFDC2 (Hs00899484_ml); TBP (Hs00427620_ml) or B2M (Hs00187842_ml), which was used as reference for normalization. Cell Viability, Proliferation and Apoptosis Assay. Cell viability, proliferation, and cellular apoptosis were measured using the MTS (Promega), BrdU cell proliferation (Cell Signaling Technology), and Caspase-Glo 3/7 apoptosis detection (Promega) assays, following the respective manufacturer's recommendations with suitable modification. Enzyme-Linked Immunosorbent Assay (ELISA) and Immunoblotting. Cells were maintained overnight in the culture media described above. […] Following the treatment, cell lysates and supernatants were collected and subjected to HE4 assay (Human HE4 Quantikine ELISA Kit, R&D Systems). The amount of HE4 in supernatant was normalized to the protein concentration of matching cell lysate. The levels of HER2 were determined by Human Total ErbB2/Her2 DuoSet IC ELISA (R&D systems. Wester blot analysis was conducted using the protocol previously published (see Kim, K. K. et al. Tetrathiomolybdate inhibits mitochondrial complex IV and mediates degradation of hypoxia-inducible factor-1alpha in cancer cells. Sci. Rep. 5, 14296, 2015). Data Acquisition and Statistical Analysis. Gene expression profiling of septins, comparing microdissected normal ovarian stroma (N=8) against that of tumor stroma samples (N=31) from high grade serous ovarian cancer patients, was obtained from Mixed Ovarian Cancer (CAFs)-Wong-77-u133p2 data-set through ‘R2: Genomics Analysis and Visualization Platform (http://r2/am/n1). Mean values with SD were plotted and compared using Student t-test (two tail, unpaired heteroscedastic t-test, significant difference when p<0.01). The prognostic assessment of septin-2 amongst different cancers or septins in endometrial cancer was conducted using TCGA data acquired through Human Protein Atlas (http://www.proteinatlas.org) (see Uhlen, M. et al. Towards a knowledge-based Human Protein Atlas. Nat. Biotechnol. 28, 1248-1250, 2010). Survival curves between septin high and low population and their statistical significance were analyzed using GraphPad Prism software (Mantel-Cox test). […] Structural Modification of FCF. […]
# [3] = tested on: HE4; assay: HE4 ELISA, secreted and intracellular levels; type: cell-based, human; conditions: ECC-1, 5 hours
# Method: Cell lines, Culture, and Reagents. Cells were maintained in either DMEM (SKOV-3, KLE, OVCAR-3, OVCAR8-C5 and IGROV-1) or RPMI-1640 (ECC-1 and HCH-1), supplemented with 10% fetal calf serum (or 20% for OVCAR-3), penicillin (100 units/mL), and streptomycin (100 μg/mL) at 37° C. with 5% CO2 in a humidified incubator. Antibodies were purchased from Abcam (septin-2; ab179436) and Cell Signaling Technology; ERK (9102), p-ERK (4370), -actin (3700), u-Tubulin (2144), EGFR (4267) and HER2 (4290). FCF was purchased from Abcam. All other chemicals were from Sigma Aldrich. Synthesis of Derivaties. […] The reaction was monitored using thin-layer chromatography plates with DCM-MeOH or pure ethyl acetate as eluent. Spots were monitored in a UV chamber. The reaction mixture, upon completion of the reaction, was poured into wet ice mixture and triturated, then the separated solid was filtered by vacuum. The product was washed with hexane, followed by diethyl ether, and was dried under vacuum. The compounds were characterized by spectrophotometric techniques. Quantitative Real-Time PCR. The indicated cell lines were transfected with siRNA targeting septin-2 or non-targeting control siRNA (Santa Cruz Biotechnology: sc-37007 or sc-40936) using Lipofectamine 3000 (Invitrogen). Tri reagent and Direct-zol kit (Zymo Research) were used to lyse and isolate total RNA. Reverse transcription was performed using iScript cDNA synthesis kit (BioRad), both following the manufacturer's recommendations. Quantitative real-time PCR was conducted using QuantStudio 12 K Flex Real-Time PCR System (ABI) and the Taqman Gene Expression Assay (ABI) consisting of the FAM-labeled probes as follows: SEPT2 (Hs01565417_ml); WFDC2 (Hs00899484_ml); TBP (Hs00427620_ml) or B2M (Hs00187842_ml), which was used as reference for normalization. Cell Viability, Proliferation and Apoptosis Assay. Cell viability, proliferation, and cellular apoptosis were measured using the MTS (Promega), BrdU cell proliferation (Cell Signaling Technology), and Caspase-Glo 3/7 apoptosis detection (Promega) assays, following the respective manufacturer's recommendations with suitable modification. Enzyme-Linked Immunosorbent Assay (ELISA) and Immunoblotting. Cells were maintained overnight in the culture media described above. […] Following the treatment, cell lysates and supernatants were collected and subjected to HE4 assay (Human HE4 Quantikine ELISA Kit, R&D Systems). The amount of HE4 in supernatant was normalized to the protein concentration of matching cell lysate. The levels of HER2 were determined by Human Total ErbB2/Her2 DuoSet IC ELISA (R&D systems. Wester blot analysis was conducted using the protocol previously published (see Kim, K. K. et al. Tetrathiomolybdate inhibits mitochondrial complex IV and mediates degradation of hypoxia-inducible factor-1alpha in cancer cells. Sci. Rep. 5, 14296, 2015). Data Acquisition and Statistical Analysis. Gene expression profiling of septins, comparing microdissected normal ovarian stroma (N=8) against that of tumor stroma samples (N=31) from high grade serous ovarian cancer patients, was obtained from Mixed Ovarian Cancer (CAFs)-Wong-77-u133p2 data-set through ‘R2: Genomics Analysis and Visualization Platform (http://r2/am/n1). […] Survival curves between septin high and low population and their statistical significance were analyzed using GraphPad Prism software (Mantel-Cox test). […]
# [4] = tested on: ECC-1 cells; assay: Caspase-3/7 activity apoptosis assay; type: cell-based; conditions: ECC-1, 33 μM, 48 hours
# Method: (§1) Cell lines, Culture, and Reagents. Cells were maintained in either DMEM (SKOV-3, KLE, OVCAR-3, OVCAR8-C5 and IGROV-1) or RPMI-1640 (ECC-1 and HCH-1), supplemented with 10% fetal calf serum (or 20% for OVCAR-3), penicillin (100 units/mL), and streptomycin (100 μg/mL) at 37° C. with 5% CO2 in a humidified incubator. Antibodies were purchased from Abcam (septin-2; ab179436) and Cell Signaling Technology; ERK (9102), p-ERK (4370), -actin (3700), u-Tubulin (2144), EGFR (4267) and HER2 (4290). FCF was purchased from Abcam. All other chemicals were from Sigma Aldrich. Synthesis of Derivaties. […] The reaction was monitored using thin-layer chromatography plates with DCM-MeOH or pure ethyl acetate as eluent. Spots were monitored in a UV chamber. […] Quantitative Real-Time PCR. […] Quantitative real-time PCR was conducted using QuantStudio 12 K Flex Real-Time PCR System (ABI) and the Taqman Gene Expression Assay (ABI) consisting of the FAM-labeled probes as follows: SEPT2 (Hs01565417_ml); WFDC2 (Hs00899484_ml); TBP (Hs00427620_ml) or B2M (Hs00187842_ml), which was used as reference for normalization. […] Cell viability, proliferation, and cellular apoptosis were measured using the MTS (Promega), BrdU cell proliferation (Cell Signaling Technology), and Caspase-Glo 3/7 apoptosis detection (Promega) assays, following the respective manufacturer's recommendations with suitable modification. […]
# [5] = tested on: ECC-1 cells; assay: BrdU cell proliferation assay; type: cell-based; conditions: ECC-1, 48 hours, BrdU, lower dose ranges
# Method: (§2) Cell lines, Culture, and Reagents. Cells were maintained in either DMEM (SKOV-3, KLE, OVCAR-3, OVCAR8-C5 and IGROV-1) or RPMI-1640 (ECC-1 and HCH-1), supplemented with 10% fetal calf serum (or 20% for OVCAR-3), penicillin (100 units/mL), and streptomycin (100 μg/mL) at 37° C. with 5% CO2 in a humidified incubator. Antibodies were purchased from Abcam (septin-2; ab179436) and Cell Signaling Technology; ERK (9102), p-ERK (4370), -actin (3700), u-Tubulin (2144), EGFR (4267) and HER2 (4290). FCF was purchased from Abcam. All other chemicals were from Sigma Aldrich. Synthesis of Derivaties. […] The reaction was monitored using thin-layer chromatography plates with DCM-MeOH or pure ethyl acetate as eluent. Spots were monitored in a UV chamber. The reaction mixture, upon completion of the reaction, was poured into wet ice mixture and triturated, then the separated solid was filtered by vacuum. The product was washed with hexane, followed by diethyl ether, and was dried under vacuum. The compounds were characterized by spectrophotometric techniques. Quantitative Real-Time PCR. The indicated cell lines were transfected with siRNA targeting septin-2 or non-targeting control siRNA (Santa Cruz Biotechnology: sc-37007 or sc-40936) using Lipofectamine 3000 (Invitrogen). […] Quantitative real-time PCR was conducted using QuantStudio 12 K Flex Real-Time PCR System (ABI) and the Taqman Gene Expression Assay (ABI) consisting of the FAM-labeled probes as follows: SEPT2 (Hs01565417_ml); WFDC2 (Hs00899484_ml); TBP (Hs00427620_ml) or B2M (Hs00187842_ml), which was used as reference for normalization. […] Cell viability, proliferation, and cellular apoptosis were measured using the MTS (Promega), BrdU cell proliferation (Cell Signaling Technology), and Caspase-Glo 3/7 apoptosis detection (Promega) assays, following the respective manufacturer's recommendations with suitable modification. […] Survival curves between septin high and low population and their statistical significance were analyzed using GraphPad Prism software (Mantel-Cox test). […]
# [6] = tested on: EGFR; assay: Western blot of EGFR expression; type: cell-based; conditions: UR214-7 33 μM, UR214-9 33 μM; 24 hours
# Method: as §1
# [7] = tested on: ECC-1 cells; assay: MTS cell viability, ECC-1; type: cell-based; conditions: ECC-1, 48 hours, MTS (FIG. 2B)
# Method: as §2
# [8] = tested on: HER2; assay: Western blot of HER2 expression in ECC-1 and HCH-1 cells; type: cell-based; conditions: UR214-7 33 μM, UR214-9 33 μM, FCF 300 μM, 24 hours
# Method: as §2
# [9] = tested on: HCH-1 cells; assay: MTS cell viability, HCH-1; type: cell-based; conditions: HCH-1, 72 hours, compared with UR214-9
# Method: as §1
smiles,measurement,setting,value
CN(C)C/C=C/C(=O)Nc1cc2c(Nc3ccc(F)c(Cl)c3)ncnc2cc1O[C@H]1CCOC1 [Afatinib],"dysregulated genes, down",[1]; 1 μM UR214-9,523
same,"dysregulated genes, up",[1]; 1 μM UR214-9,713
same,dysregulated (differentially expressed) genes versus control,"[1]; 1 μM UR214-9, adjusted p-value <0.05",1236 genes
O=C(Nc1ccnc(Cl)c1)Nc1cc(SC(F)(F)F)ccc1Cl [UR214-1],proliferation in multiple endometrial and ovarian cancer cells,[2],blocked proliferation
same,cytotoxic / anti-proliferative activity (FIG. 2A),[2]; MTS,very potent cytotoxic activity
same,HE4 secretion,[3],reduced HE4 secretion
O=C(Nc1cccc(OCc2ccccc2)c1)Nc1ccnc(Cl)c1 [UR214-2],cytotoxic / anti-proliferative activity (FIG. 2A),[2]; MTS,not tolerated
O=C(Nc1ccc(-n2cccc2)cc1)Nc1ccnc(Cl)c1 [UR214-3],cytotoxic / anti-proliferative activity (FIG. 2A),[2]; MTS,not tolerated
O=C(Nc1ccc(-c2ncccn2)cc1)Nc1ccnc(Cl)c1 [UR214-4],cytotoxic / anti-proliferative activity (FIG. 2A),[2]; MTS,not tolerated
O=C(Nc1cnc(Cl)nc1)Nc1cc(SC(F)(F)F)ccc1Cl [UR214-6],cytotoxic / anti-proliferative activity (FIG. 2A),[2]; MTS,lack of activity
O=C(Nc1ccnc(Cl)c1)Nc1cccc(SC(F)(F)F)c1F [UR214-7],apoptosis (caspase-3/7 activity),[4],caused apoptosis
same,proliferation,[5],reduce proliferation
same,EGFR expression,[6],did not have an effect
same,concentration inhibiting viability,[7],≥ 11 µM
same,HER2 expression,[8],inhibition of HER2 expression
same,"viability of tumor cells, dose-dependent (FIG. 2E)",[9],superior efficacy
same,proliferation in multiple endometrial and ovarian cancer cells,[2],blocked proliferation
same,HE4 secretion,[3],reduced HE4 secretion
O=C(Nc1ccnc(Br)c1)Nc1cccc(C(F)(F)F)c1F [UR214-11],"viability of tumor cells, dose-dependent (FIG. 2E)","[2]; 72 hours, MTS",did not lose activity

# Source: US12433876B2, “Septin inhibitors for treatment of cancers” (UNIVERSITY OF ROCHESTER, priority 2019, dated 2025)
